# Active and inactive are the calls of the source. No cut-off for these calls is given here.
# Test system: Mus musculus
# Test: Toxicity in BKS db/db mouse assessed as effect on water intake at 100 mg/kg/day up to 4 weeks
# Type: organism-based
# Details: in vivo, 672 h
row,SMILES,Activity
1,CN(C)C(=N)N=C(N)N [METFORMIN],Toxic
2,COc1ccc(Cn2c(=O)cc(N3CCC[C@@H](N)C3)n(Cc3cc(F)ccc3C#N)c2=O)cc1OC.O=C(O)CCC(=O)O,Toxic

# Test system: Mus musculus
# Test: Toxicity in BKS db/db mouse assessed as effect on body weight at 100 mg/kg/day up to 4 weeks
# Type: organism-based
# Details: in vivo, 672 h
row,SMILES,Activity
1,CN(C)C(=N)N=C(N)N [METFORMIN],Non-Toxic
2,COc1ccc(Cn2c(=O)cc(N3CCC[C@@H](N)C3)n(Cc3cc(F)ccc3C#N)c2=O)cc1OC.O=C(O)CCC(=O)O,Non-Toxic

# Test system: Mus musculus
# Test: Effect on abdominal fat content in BKS db/db mouse assessed as reduction in abdominal fat ratio at 100 mg/kg/day for 4 weeks
# Type: functional, organism-based
# Details: not given
row,SMILES,Activity
1,CN(C)C(=N)NC(=N)N,inactive
2,COc1ccc(Cn2c(=O)cc(N3CCC[C@@H](N)C3)n(Cc3cc(F)ccc3C#N)c2=O)cc1OC [listing 1 of 2 here],inactive

# Test system: Mus musculus
# Test: Antihyperglycemic activity in BKS db/db mouse assessed as reduction in blood glucose level at 100 mg/kg/day for 4 weeks by glucometric analysis
# Type: functional, organism-based
# Details: not given
row,SMILES,Activity
1,CN(C)C(=N)NC(=N)N,Active
2,COc1ccc(Cn2c(=O)cc(N3CCC[C@@H](N)C3)n(Cc3cc(F)ccc3C#N)c2=O)cc1OC [listing 1 of 2 here],Active

# Test system: not listed separately
# Test: Lipophilicity, log P of the compound
# Type: physicochemical
# Details: octanol/water
row,logP,SMILES
1,1.55,CC#CCn1c(N2CCC[C@@H](N)C2)cc(=O)n(Cc2ccc(OC)c(OC)c2)c1=O
2,4.93,CCCCCCCCCCn1c(=O)cc(N2CCC[C@@H](N)C2)n(Cc2cc(F)ccc2C#N)c1=O
3,3.23,N#Cc1ccc(F)cc1Cn1c(N2CCC[C@@H](N)C2)cc(=O)n(Cc2cc(F)cc(F)c2)c1=O
4,4.32,COc1cc(Cn2c(=O)cc(N3CCC[C@@H](N)C3)n(Cc3cc(F)ccc3C#N)c2=O)c(Br)c(Br)c1OC
5,0.41,CC#CCn1c(N2CCC[C@@H](N)C2)cc(=O)n(CC)c1=O
6,3.26,CCCCCCn1c(=O)cc(N2CCC[C@@H](N)C2)n(Cc2cc(F)ccc2C#N)c1=O
7,3.21,CC#CCn1c(N2CCC[C@@H](N)C2)cc(=O)n(Cc2cc(OC)c(OC)c(Br)c2Br)c1=O
8,2.66,COc1ccc(Cn2c(=O)cc(N3CCC[C@@H](N)C3)n(Cc3cc(F)ccc3C#N)c2=O)cc1OC [listing 2 of 2 here]
9,5.15,COc1c(Br)c(Br)c(Cn2c(=O)cc(N3CCC[C@@H](N)C3)n(Cc3cc(F)ccc3C#N)c2=O)c(Br)c1OC
10,3.89,Cc1cc(C)cc(Cn2c(=O)cc(N3CCC[C@@H](N)C3)n(Cc3cc(F)ccc3C#N)c2=O)c1
11,2.12,CC#CCn1c(N2CCC[C@@H](N)C2)cc(=O)n(Cc2cc(F)cc(F)c2)c1=O
12,3.82,CC#CCn1c(N2CCC[C@@H](N)C2)cc(=O)n(CCCCCCCCCC)c1=O
13,0.9,CC#CCn1c(N2CCC[C@@H](N)C2)cc(=O)n(CCC)c1=O
14,3.49,COc1cc(Cn2c(=O)cc(N3CCC[C@@H](N)C3)n(Cc3cc(F)ccc3C#N)c2=O)cc(Br)c1OC
15,2.78,CC#CCn1c(N2CCC[C@@H](N)C2)cc(=O)n(Cc2cc(C)cc(C)c2)c1=O
16,4.04,CC#CCn1c(N2CCC[C@@H](N)C2)cc(=O)n(Cc2c(Br)c(Br)c(OC)c(OC)c2Br)c1=O
17,2.38,CC#CCn1c(N2CCC[C@@H](N)C2)cc(=O)n(Cc2cc(Br)c(OC)c(OC)c2)c1=O
18,2.15,CC#CCn1c(N2CCC[C@@H](N)C2)cc(=O)n(CCCCCC)c1=O
